# Assay results published in ChEMBL document CHEMBL1201862, “PubChem BioAssay data set” (2004).
# Activity calls are given as the source filed them.
# How the values were obtained:
# [1] = target: FAD-linked sulfhydryl oxidase ALR (Homo sapiens, UniProt P55789); assay: inhibitors of human ALR sulfhydryl oxidase, dose response, biochemical, H2O2 detection, luminescence, cherry-pick (AID 493248)
# [2] = target: Large T antigen (Simian virus 40, UniProt P03070); type: functional, Betapolyomavirus macacae;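 further: Confirmatory-stage PubChem screen for compounds that inhibit SV40 T antigen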
# [3] = target: Paired box protein Pax-8 (Homo sapiens, UniProt Q06710); assay: inhibitors of PAX8-driven TPO luciferase reporter, dose response, RMG-I cells, cherry-pick (AID 687027); type: functional, cell-based;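 further: luciferase reporter driven by Pax8 target thyroperoxidase promoter measured by SteadyGlo luminescence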
# [4] = target: T1, Leucine aminopeptidase (Plasmodium falciparum 3D7, UniProt Q8IL11); assay: P. falciparum M17LAP inhibitors, primary screen, biochemical, fluorogenic H-Leu-NHMec substrate, 1536-well (AID 1619); type: functional
# T1 sequence (Q8IL11 whole entry): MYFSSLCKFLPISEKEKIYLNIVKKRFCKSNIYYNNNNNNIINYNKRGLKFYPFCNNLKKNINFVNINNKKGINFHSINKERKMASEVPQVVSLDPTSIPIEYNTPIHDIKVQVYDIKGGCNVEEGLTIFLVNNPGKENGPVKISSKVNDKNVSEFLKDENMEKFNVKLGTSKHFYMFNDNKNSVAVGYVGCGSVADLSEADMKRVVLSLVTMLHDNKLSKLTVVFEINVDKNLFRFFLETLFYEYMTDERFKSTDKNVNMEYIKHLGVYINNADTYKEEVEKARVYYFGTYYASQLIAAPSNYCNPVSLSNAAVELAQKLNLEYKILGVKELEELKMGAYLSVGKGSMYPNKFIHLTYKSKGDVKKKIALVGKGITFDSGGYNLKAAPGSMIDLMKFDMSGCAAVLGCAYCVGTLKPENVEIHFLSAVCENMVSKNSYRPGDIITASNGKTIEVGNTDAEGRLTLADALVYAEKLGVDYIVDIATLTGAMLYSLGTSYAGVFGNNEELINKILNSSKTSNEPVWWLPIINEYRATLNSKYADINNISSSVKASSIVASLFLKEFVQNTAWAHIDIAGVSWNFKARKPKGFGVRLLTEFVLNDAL
# [5] = target: T2, Aminopeptidase N (Plasmodium falciparum FcB1/Columbia, UniProt O96935); assay: P. falciparum M1AAP inhibitors, biochemical, fluorogenic H-Leu-NHMec substrate, 1536-well (AID 1445); parameters: species or system Plasmodium falciparum 3D7, 3D7
# T2 sequence (O96935 whole entry): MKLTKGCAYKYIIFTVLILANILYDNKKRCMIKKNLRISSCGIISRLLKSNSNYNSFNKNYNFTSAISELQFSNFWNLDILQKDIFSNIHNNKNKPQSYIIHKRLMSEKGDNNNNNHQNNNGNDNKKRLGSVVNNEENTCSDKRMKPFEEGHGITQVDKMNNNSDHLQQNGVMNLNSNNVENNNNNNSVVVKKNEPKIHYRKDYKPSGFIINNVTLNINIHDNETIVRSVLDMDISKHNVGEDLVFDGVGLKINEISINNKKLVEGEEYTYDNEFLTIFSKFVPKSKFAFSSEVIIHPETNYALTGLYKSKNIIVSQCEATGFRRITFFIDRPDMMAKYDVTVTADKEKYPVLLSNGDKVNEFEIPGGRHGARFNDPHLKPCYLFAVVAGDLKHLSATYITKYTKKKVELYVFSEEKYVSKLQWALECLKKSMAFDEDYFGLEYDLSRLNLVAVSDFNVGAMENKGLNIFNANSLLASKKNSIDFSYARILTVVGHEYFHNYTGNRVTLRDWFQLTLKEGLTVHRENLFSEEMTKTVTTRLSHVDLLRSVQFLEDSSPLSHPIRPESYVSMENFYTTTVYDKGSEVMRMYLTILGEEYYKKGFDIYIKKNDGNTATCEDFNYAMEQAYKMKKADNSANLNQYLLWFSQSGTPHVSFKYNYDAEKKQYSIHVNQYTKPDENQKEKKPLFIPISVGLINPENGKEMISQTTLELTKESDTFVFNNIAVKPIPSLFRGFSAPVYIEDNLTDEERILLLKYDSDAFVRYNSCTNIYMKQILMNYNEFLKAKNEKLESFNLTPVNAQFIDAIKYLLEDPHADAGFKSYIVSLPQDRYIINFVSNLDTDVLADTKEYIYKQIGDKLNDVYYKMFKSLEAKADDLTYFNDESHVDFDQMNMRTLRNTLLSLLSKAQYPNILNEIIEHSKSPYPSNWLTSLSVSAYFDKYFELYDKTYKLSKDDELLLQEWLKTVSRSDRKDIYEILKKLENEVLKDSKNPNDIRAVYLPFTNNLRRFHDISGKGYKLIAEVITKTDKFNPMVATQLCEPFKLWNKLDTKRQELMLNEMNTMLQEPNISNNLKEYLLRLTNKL
# [6] = target: T3, Heat shock factor protein 1 (Mus musculus, UniProt P38532); assay: HSF1 potentiators in luciferase reporter cells, confirmation, cell-based, NIH3T3, luminescence, dose retest (AID 435004); type: functional;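 further: stress induced by proteasome inhibitor MG132 added 30 min after compound; luciferase reporter driven by HSF1 response element in NIH3T3 cells; actives raise luminescence as potentiators of the MG132 stress response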
# T3 sequence (P38532 whole entry): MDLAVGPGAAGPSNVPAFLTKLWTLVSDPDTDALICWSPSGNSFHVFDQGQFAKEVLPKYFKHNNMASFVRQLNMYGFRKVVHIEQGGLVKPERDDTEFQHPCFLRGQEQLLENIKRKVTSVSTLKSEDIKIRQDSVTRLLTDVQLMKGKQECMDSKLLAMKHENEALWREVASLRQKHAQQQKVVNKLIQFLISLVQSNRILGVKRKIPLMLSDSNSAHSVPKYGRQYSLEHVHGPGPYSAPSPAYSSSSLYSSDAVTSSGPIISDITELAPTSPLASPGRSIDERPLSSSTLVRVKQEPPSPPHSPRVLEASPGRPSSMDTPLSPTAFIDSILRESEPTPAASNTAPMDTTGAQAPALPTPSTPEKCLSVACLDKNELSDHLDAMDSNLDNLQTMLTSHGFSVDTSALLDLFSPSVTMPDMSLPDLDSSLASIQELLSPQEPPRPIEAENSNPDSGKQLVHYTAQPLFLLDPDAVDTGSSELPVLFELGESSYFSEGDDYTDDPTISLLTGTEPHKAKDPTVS
# [7] = ZM109 Env clade C HIV-1 fusion inhibitors, dose response, HeLa effector, CEM target cells, luciferase, cherry-pick (AID 652058); type: functional, cell-based
# [8] = inhibitors of clade B AD8 Env fusion, dose response, cell-based, cherry-pick (AID 652062); type: functional;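 further: luciferase signal from cell-cell fusion driven by HIV-1 clade B AD8 Env; potency is for inhibitors of fusion seen as a drop in luminescence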
# [9] = microbe, parasite or virus in culture; type: functional; details: Mycobacterium tuberculosis
# [10] = target: T4, Replicative DNA helicase DnaB (Mycobacterium tuberculosis, UniProt P9WMR3); assay: DnaB intein splicing inhibitors, dose response, biochemical, cell-free fluorescence (AID 449749); type: functional
# T4 sequence (P9WMR3 whole entry): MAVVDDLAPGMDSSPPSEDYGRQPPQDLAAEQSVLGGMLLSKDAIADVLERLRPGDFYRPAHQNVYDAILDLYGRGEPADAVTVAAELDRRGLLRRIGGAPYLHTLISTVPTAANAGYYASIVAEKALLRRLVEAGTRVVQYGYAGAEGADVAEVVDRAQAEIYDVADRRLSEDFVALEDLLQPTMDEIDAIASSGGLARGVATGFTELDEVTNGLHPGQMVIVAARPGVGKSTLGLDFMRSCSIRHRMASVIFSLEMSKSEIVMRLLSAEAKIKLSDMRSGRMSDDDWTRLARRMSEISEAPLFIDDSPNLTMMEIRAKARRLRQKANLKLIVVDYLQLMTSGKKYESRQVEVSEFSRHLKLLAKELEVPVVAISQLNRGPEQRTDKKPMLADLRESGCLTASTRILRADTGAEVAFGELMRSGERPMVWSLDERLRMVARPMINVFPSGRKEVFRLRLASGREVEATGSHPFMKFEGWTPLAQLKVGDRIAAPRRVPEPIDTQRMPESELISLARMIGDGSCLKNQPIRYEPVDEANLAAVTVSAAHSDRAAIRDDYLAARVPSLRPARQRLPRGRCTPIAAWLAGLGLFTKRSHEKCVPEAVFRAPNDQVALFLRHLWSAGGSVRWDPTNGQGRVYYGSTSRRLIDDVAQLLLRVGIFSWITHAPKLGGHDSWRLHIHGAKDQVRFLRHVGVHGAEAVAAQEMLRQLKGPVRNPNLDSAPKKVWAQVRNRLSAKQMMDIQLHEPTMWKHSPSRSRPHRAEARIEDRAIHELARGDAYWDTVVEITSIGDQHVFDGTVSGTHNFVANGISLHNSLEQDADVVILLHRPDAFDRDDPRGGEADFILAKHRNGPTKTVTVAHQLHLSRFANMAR
# [11] = target: T5, Protein RecA (Mycobacterium tuberculosis, UniProt P9WHJ3); assay: Fluorescence Cell-Free Homogeneous Dose Retest to Identify Inhibitors of RecA-Intein Splicing Activity. [Related pubchem assays (depositor defined):AID2097, AID2223, AID489010, AID492950]; type: functional
# T5 sequence (P9WHJ3 whole entry): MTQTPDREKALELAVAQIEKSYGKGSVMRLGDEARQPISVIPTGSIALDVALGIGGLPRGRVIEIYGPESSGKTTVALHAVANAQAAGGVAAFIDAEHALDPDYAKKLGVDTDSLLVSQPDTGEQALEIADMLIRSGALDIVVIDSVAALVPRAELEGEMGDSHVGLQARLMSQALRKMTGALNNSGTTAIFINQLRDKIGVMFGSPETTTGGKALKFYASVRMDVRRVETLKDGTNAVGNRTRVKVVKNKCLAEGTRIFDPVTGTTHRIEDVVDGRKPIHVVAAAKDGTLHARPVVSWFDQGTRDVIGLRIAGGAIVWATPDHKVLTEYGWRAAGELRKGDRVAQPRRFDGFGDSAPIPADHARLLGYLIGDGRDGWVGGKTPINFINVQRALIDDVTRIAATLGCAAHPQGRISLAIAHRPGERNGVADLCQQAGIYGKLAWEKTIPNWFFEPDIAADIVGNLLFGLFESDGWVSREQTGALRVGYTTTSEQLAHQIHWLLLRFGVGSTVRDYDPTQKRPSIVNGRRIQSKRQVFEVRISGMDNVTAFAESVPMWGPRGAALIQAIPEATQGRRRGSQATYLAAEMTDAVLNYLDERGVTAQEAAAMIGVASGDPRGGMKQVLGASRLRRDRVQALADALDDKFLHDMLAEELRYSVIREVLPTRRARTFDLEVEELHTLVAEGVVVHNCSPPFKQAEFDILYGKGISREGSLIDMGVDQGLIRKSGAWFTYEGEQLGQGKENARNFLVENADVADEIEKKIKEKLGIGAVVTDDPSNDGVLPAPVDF
# [12] = system: Streptococcus sp. 'group A'; assay: growth inhibition of control SK(-) GAS strain, dose response, counter-screen for streptokinase expression inhibitor project, luminescence, kanamycin, BacTiterGlo, confirmation (AID 1900); type: functional, organism-based
# [13] = system: Streptococcus; assay: Group A Streptococcus viability loss, dose response, counter-screen for streptokinase expression inhibitor project, luminescence, BacTiterGlo (AID 1915); type: functional, organism-based;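 further: potency for reduction of bacterial viability or growth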
# [14] = cells; type: functional
# [15] = system: INS1; assay: beta cell apoptosis inhibitors, cytokine rescue, dose response, luminescence, retest (AID 449756); type: functional, cell-based; details: Rattus norvegicus;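 further: cell death triggered by IL-1 beta plus TNF-alpha plus IFN-gamma mixture; protective hits raise ATP signal compared with cytokine alone wells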
# [16] = Shn3 3'UTR reporter inhibitors, dose response, cell-based, Clone20 osteoblasts, firefly luciferase, cherry-picked (AID 624132); type: functional;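 further: firefly luciferase luminescence from reporter carrying the Shn3 3'UTR in osteoblasts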
# [17] = control 3'UTR Renilla luciferase suppression, dose response, counter-screen for Shn3 inhibitor project, cell-based, Clone20-Shn3RL, cherry-picked (AID 624133); type: functional
# [18] = system: SN12K1; assay: cells; type: functional; details: Homo sapiens
# [19] = system: P388; assay: cells; type: functional; details: Mus musculus;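 further: compound exposure lasted 48 hours before growth was measured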
# Chain of FAD-linked sulfhydryl oxidase ALR (P55789 whole entry): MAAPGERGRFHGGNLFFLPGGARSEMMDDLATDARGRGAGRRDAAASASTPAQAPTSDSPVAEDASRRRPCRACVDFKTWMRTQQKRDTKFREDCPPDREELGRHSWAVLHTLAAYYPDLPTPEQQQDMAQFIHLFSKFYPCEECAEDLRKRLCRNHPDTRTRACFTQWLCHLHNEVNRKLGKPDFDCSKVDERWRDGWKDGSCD
# Chain of Large T antigen (P03070 whole entry): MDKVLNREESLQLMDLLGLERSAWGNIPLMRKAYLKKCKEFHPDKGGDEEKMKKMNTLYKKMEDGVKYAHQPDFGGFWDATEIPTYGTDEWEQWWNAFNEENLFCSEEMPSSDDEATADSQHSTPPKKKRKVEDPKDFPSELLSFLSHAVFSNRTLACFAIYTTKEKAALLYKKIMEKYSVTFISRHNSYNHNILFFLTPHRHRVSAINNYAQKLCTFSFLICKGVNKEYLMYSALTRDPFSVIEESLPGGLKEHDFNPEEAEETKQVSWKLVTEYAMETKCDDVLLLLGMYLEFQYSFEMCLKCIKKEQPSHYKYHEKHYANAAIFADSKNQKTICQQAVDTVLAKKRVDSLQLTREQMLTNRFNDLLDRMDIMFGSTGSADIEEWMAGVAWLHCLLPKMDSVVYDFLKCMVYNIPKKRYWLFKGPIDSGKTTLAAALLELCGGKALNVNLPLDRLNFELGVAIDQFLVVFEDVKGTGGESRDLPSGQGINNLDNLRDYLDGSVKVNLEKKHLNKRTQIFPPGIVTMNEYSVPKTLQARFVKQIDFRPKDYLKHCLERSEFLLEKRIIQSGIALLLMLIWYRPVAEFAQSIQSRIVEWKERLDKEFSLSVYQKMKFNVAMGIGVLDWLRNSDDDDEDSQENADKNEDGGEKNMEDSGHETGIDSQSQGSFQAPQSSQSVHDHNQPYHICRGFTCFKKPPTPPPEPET
# Chain of Paired box protein Pax-8 (Q06710 whole entry): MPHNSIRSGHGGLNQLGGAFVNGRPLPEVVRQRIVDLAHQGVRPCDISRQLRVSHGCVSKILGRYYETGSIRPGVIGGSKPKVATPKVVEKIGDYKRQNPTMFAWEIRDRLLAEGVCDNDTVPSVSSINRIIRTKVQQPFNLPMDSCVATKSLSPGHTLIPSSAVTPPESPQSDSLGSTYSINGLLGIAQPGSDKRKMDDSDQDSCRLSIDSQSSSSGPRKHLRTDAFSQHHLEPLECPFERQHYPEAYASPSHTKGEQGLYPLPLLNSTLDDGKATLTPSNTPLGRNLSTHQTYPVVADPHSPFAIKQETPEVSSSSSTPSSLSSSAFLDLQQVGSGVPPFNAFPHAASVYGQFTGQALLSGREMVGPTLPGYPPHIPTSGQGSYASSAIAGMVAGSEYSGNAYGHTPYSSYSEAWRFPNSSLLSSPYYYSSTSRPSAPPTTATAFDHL
smiles,measurement,setting,value
COc1cccc(N2CCN(C(=O)C3CCCN(S(=O)(=O)c4c[nH]cn4)C3)CC2)c1 (stereo not drawn),AC50,[1],16.8 µM (active)
O=C(NNc1c2ccccc2nc2ccccc12)c1cccc(O)c1,AC50,[1],0.738 µM (active)
Nc1ccc(Sc2ccccc2CC(=O)O)cc1,IC50,[2],> 100 µM (active)
Cc1ccnc(NC(c2ccccn2)c2c(C)[nH]c3ccccc23)c1 (stereo not drawn),AC50,[1],1.39 µM (active)
COc1ccc(C(=O)c2ccc(Cl)c([N+](=O)[O-])c2)cc1,AC50,[1],3.95 µM (active)
same,AC50,[3],7.17 µM (active)
COc1cc(/C=C2\SC(=S)N(NS(=O)(=O)c3ccccc3)C2=O)ccc1O,IC50,[4],38.8 µM (active)
same,IC50,[5],24.5 µM (active)
same,IC50,[2],14.5 µM (active)
Oc1ccc(-c2nc3cnccn3c2Nc2ccc3c(c2)OCCO3)cc1,IC50,[2],4.14 µM (active)
same,EC50,[6],11 µM (active)
CC(C)CNS(=O)(=O)c1ccc(CCC(=O)N2CCN(Cc3ccc4c(c3)OCO4)CC2)cc1,AC50,[7],12.1 µM (active)
same,AC50,[8],27.2 µM (active)
Cc1cc(C(=O)CCl)c(C)n1CCc1ccc(Cl)cc1,CC50,[9],2.48 µM (active)
same,EC50,[6],> 260 µM (inconclusive)
same,AC50,[10],8.7 µM (active)
same,EC50,[11],7.32 µM (active)
COc1ccc2[nH]c3ccc(OC)cc3c2c1,AC50,[1],8.33 µM (active)
Cc1ccc2nccc(C(=O)N3CCCC(Nc4ccc(F)cc4)C3)c2c1 (stereo not drawn),AC50,[1],3.03 µM (active)
CN1CCCNc2nc3ccccc3nc21,AC50,[1],9.27 µM (active)
O=C(Nc1nnc(-c2ccc3c(c2)CCCC3)o1)c1c(F)cccc1F,EC50,[12],1.77 µM (active)
same,EC50,[13],7.35 µM (active)
same,AC50,[1],7.99 µM (active)
same,IC50,[14],4.08 µM (active)
Clc1ccc(-c2cc(-c3nnc4n3CCCCC4)c3ccccc3n2)cc1,AC50,[15],6.17 µM (active)
same,AC50,[16],5.59 µM (active)
same,AC50,[17],11.1 µM (active)
Cc1noc(C)c1C(=O)Nc1ccc(N(C)C)cc1,AC50,[1],1.3 µM (active)
CCCCCOc1ccc(/C=N\c2ccc(-c3ccc(/N=C\c4ccc(OCCCCC)cc4)c(OC)c3)cc2OC)cc1,GI50,[18],> 100 µM (inactive)
same,GI50,[19],> 100 µM (inactive)
CC(=O)Nc1ccc(/C=C/c2ccc(NC(=O)Nc3ccc(/C=C/c4ccc(NC(C)=O)cc4S(=O)(=O)O)c(S(=O)(=O)O)c3)cc2S(=O)(=O)O)c(S(=O)(=O)O)c1,GI50,[18],> 100 µM (inactive)
same,GI50,[19],> 100 µM (inactive)
COc1ccc(CC(=O)N/N=C(\C)CC(=O)Nc2ccc(N(C)C)cc2)cc1OC,IC50,[2],10.1 µM (active)
